Assay results taken from PubChem BioAssay (NCI).
Several values for one entry are separate records, joined by “and”; a condition that tells them apart may be missing. Identical values can stand only once.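 Tested at 5 concentrations; 48 h exposure; 96-well plates; endpoints linearly interpolated, else capped at highest concentration. GI50: concentration for 50% inhibition of growth. TGI: total growth inhibition.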

What was measured:
Assay in all cases: NCI tumour cell line growth inhibition, 48 h
UACC-62 melanoma = system: UACC-62 melanoma
NCI-H23 lung = system: NCI-H23 lung
OVCAR-5 ovarian = system: OVCAR-5 ovarian
UACC-257 melanoma = system: UACC-257 melanoma
MDA-MB-231 breast = system: MDA-MB-231 breast
SNB-75 CNS = system: SNB-75 CNS
MOLT-4 leukemia = system: MOLT-4 leukemia
CCRF-CEM leukemia = system: CCRF-CEM leukemia
T-47D breast = system: T-47D breast
NCI-H522 lung = system: NCI-H522 lung

| Compound | TGI (UACC-62 melanoma) | TGI (NCI-H23 lung) | TGI (OVCAR-5 ovarian) | TGI (UACC-257 melanoma) | TGI (MDA-MB-231 breast) | TGI (SNB-75 CNS) | TGI (MOLT-4 leukemia) | TGI (CCRF-CEM leukemia) | TGI (T-47D breast) | TGI (NCI-H522 lung) | GI50 (MOLT-4 leukemia) | GI50 (NCI-H522 lung) | GI50 (NCI-H23 lung) | GI50 (CCRF-CEM leukemia) | GI50 (OVCAR-5 ovarian) | GI50 (MDA-MB-231 breast) | GI50 (T-47D breast) |
| --- | --- | --- | --- | --- | --- | --- | --- | --- | --- | --- | --- | --- | --- | --- | --- | --- | --- |
| C=C1CC[C@H]2C(=O)OC(c3ccoc3)C[C@]2(C)C/C=C\C=C/1C(=O)OC (some centres not stated) | > 25 µM | > 25 µM | > 25 µM | > 25 µM | > 25 µM | > 25 µM |  |  |  |  |  |  |  |  |  |  |  |
| CCOC(=O)C(NC(=O)c1ccccc1)(N1CCN(c2cc3c(cc2F)c(=O)c(C(=O)O)cn3C2CC2)CC1)C(F)(F)F (configuration not stated) | 47.6 µM | 32.9 µM | 40.5 µM |  | 31 µM | 69.9 µM | 32.8 µM | 14.6 µM | 46.1 µM |  |  |  |  |  |  |  |  |
| O=C(CBr)c1ccc2cc(Br)c3ccccc3c2c1 | 29.8 µM | 35.3 µM | 57.9 µM | 49.9 µM | 51.2 µM | 72.8 µM | 37 µM | > 100 µM |  | 37.6 µM |  |  |  |  |  |  |  |
| CCOC(=O)c1ccc(-c2ccc(Cl)cc2)[nH]1 | > 10 µM | > 10 µM | > 10 µM | > 10 µM |  | > 10 µM | > 10 µM | > 10 µM |  | > 10 µM |  |  |  |  |  |  |  |
| COCCn1cnc2c(Cl)nc(Nc3ccccc3)nc21 | 85.1 µM | > 100 µM | > 100 µM | > 100 µM | 75.6 µM | > 100 µM | 60.5 µM | 46.9 µM | > 100 µM |  |  |  |  |  |  |  |  |
| COc1cccc(CC(=O)N2CCN(CCCc3ccccc3)CC2)c1 | > 100 µM | > 100 µM | > 100 µM | > 100 µM | > 100 µM |  | > 100 µM | > 100 µM | 89.9 µM | > 100 µM |  |  |  |  |  |  |  |
| C=C1CCCCCCCCC/C=C/1SCCCSC | > 100 µM | > 100 µM | > 100 µM | > 100 µM | > 100 µM |  | > 100 µM |  | > 100 µM | > 100 µM |  |  |  |  |  |  |  |
| CC(=O)O[C@]12CCCCCC1C1(O)C(O)CCCCC12 (some centres not stated) | > 100 µM | > 100 µM |  | > 100 µM |  | > 100 µM | > 100 µM | > 100 µM |  | > 100 µM |  |  |  |  |  |  |  |
| O=C1C(Br)=CC2(C=C1Br)CCNC1=C2C(=O)c2ncccc2C1=O | 1.84 µM | 1.65 µM | 3.09 µM | 1.89 µM | 3.67 µM | 2.9 µM |  | 6.82 µM | 4.48 µM | 1.06 µM |  |  |  |  |  |  |  |
| COC(=O)N[C@H](C(=O)NC(OCc1ccccc1)C1COC(C)(C)O1)C(C)O[Si](C)(C)C(C)(C)C (some centres not stated) |  | > 100 µM | > 100 µM | > 100 µM |  | > 100 µM | > 100 µM | > 100 µM | > 100 µM |  |  |  |  |  |  |  |  |
| c1ccc2c(c1)OCCOCCOc1ccccc1OCCO2 | > 100 µM | > 100 µM | > 100 µM | > 100 µM |  | > 100 µM | > 100 µM | > 100 µM |  | > 100 µM |  |  |  |  |  |  |  |
| CCCCCCc1cc2cc(C(=O)Nc3ccc(F)cc3)c(=N)oc2cc1O | 8.7 µM | 4.6 µM | > 100 µM | 29.2 µM |  |  | 5.59 µM | 3.8 µM |  | 6.13 µM |  |  |  |  |  |  |  |
| NC1(CCNC(=O)c2ccccc2)CCN(C(=O)c2ccccc2)CC1 | > 100 µM | > 100 µM | > 100 µM | > 100 µM |  | > 100 µM | > 100 µM | > 100 µM | > 100 µM | > 100 µM |  |  |  |  |  |  |  |
| Cc1n[n+](Cc2ccccc2)c2sc(N)nn12 | 38.5 µM | > 100 µM | > 100 µM | > 100 µM |  | > 100 µM | > 100 µM | > 100 µM | > 100 µM | 76.2 µM |  |  |  |  |  |  |  |
| CC(=O)NC1C(Sc2ncn(C3OC(CO)C(O)C(O)C3NC(C)=O)n2)OC(CO)C(O)C1O (configuration not stated) | > 100 µM | > 100 µM | > 100 µM | > 100 µM | > 100 µM |  | > 100 µM | > 100 µM | > 100 µM | > 100 µM |  |  |  |  |  |  |  |
| CCCC(=O)[O-].CCCC(=O)[O-].NCCN.NCCN.[Co+3].[O-][Cl+3]([O-])([O-])[O-] | > 100 µM | > 100 µM | > 100 µM | > 100 µM |  | > 100 µM | > 100 µM | > 100 µM |  | > 100 µM |  |  |  |  |  |  |  |
| CCCCC1Cc2cc(O)ccc2-c2nc3cc(O)ccc3n21 (configuration not stated) (tested in a mixture with another compound) | 25.5 µM | 72.5 µM | 34.8 µM | 45.6 µM | 31.3 µM |  | 46.9 µM | 51.8 µM | > 100 µM | 25 µM |  |  |  |  |  |  |  |
| CC(=O)c1ccc2c(c1)C(=O)c1sc(C(C)=O)cc1C2=O |  | 2.6 µM and 5.35 µM | 2.36 µM and 3.92 µM |  | 3.75 µM and 7.75 µM | 6.27 µM and 4.85 µM |  |  | 3.01 µM and 4.31 µM | 1.7 µM and 0.585 µM | 0.0664 µM | 0.222 µM | 0.607 µM | 0.182 µM | 1.87 µM | 0.521 µM | 1.73 µM |
